Patent publication US4672068A, “Antihypertensive 1,4-dihydropyridines having a conjugated ester” (Fujirebio Kabushiki Kaisha, priority 1984, dated 1987)

Tested on: Male spontaneously hypertensive rats (SHR), arterial blood pressure
Experiment: Depressor response after intravenous administration (30 μg/kg), Table 1
Format: in vivo, rat
Conditions: for Duration: '90<' means greater than 90
Experimental: Male spontaneously hypertensive rats (SHR) which had mean arterial blood pressures higher than 140 mmHg were used for the experiments. Arterial blood pressure was measured through the catherized artery with a pressure transducer (MPU-0.5, manufactured by Nihon Kohden Kabushiki Kaisha). The catheter was inserted into the abdominal aorta via the median coccygcal artery of SHR under light ether anesthesia. The recordings were made on a rectigraph (manufactured by Sanei Sokki Kabushiki Kaisha). The 1,4-dihydropyridine derivatives prepared in the foregoing examples were administered with catheter which was inserted previously into the caudal vein or duodenum at least two hours after the operation. SHR were restrained with wire mesh cage immediately after the operation. Each derivative to be tested was dissolved in 1.5% PVP/ethanol, and then diluted with 0.9% saline or intravenous administration (30 μg/kg), or suspended in 5% gum arabic solution of intraduodenal administration (1 mg/kg).

Compound	The time to reach the lowest BP [min]	ΔBP (Maximum depressor response) [mmHg]	Duration [min]	halflife (number in parentheses in Duration column) [min]
COCCOC(=O)C1=C(C)NC(C)=C(C(=O)OCC=CC=Cc2ccccc2)C1c1cccc([N+](=O)[O-])c1 (stereo not drawn) [Example 62, 2-methoxyethyl 5-phenyl-2,4-pentadienyl 4-(3-nitrophenyl)-2,6-dimethyl-1,4-dihydropyridine-3,5-dicarboxylate]	2.0	60	> 90	–
COCCOC(=O)C1=C(C)NC(C)=C(C(=O)OC(C)C=Cc2ccccc2)C1c1cccc([N+](=O)[O-])c1 (stereo not drawn) [Example 34, 1-methyl-3-phenyl-2-propenyl 2-methoxyethyl 4-(3-nitrophenyl)-2,6-dimethyl-1,4-dihydropyridine-3,5-dicarboxylate]	5	45	> 230	–
COC(=O)C1=C(C)NC(C)=C(C(=O)OCCC=Cc2ccc(C)cc2)C1c1cccc([N+](=O)[O-])c1 (stereo not drawn) [Example 20, 4-(p-methylphenyl)-3-butenyl methyl 4-(3-nitrophenyl)-2,6-dimethyl-1,4-dihydropyridine-3,5-dicarboxylate]	1.8	52.5	90	–
CC=CC=CCOC(=O)C1=C(C)NC(C)=C(C(=O)OC(C)C)C1c1cccc([N+](=O)[O-])c1 (stereo not drawn) [Example 68, Isopropyl 2,4-hexadienyl 4-(3-nitrophenyl)-2,6-dimethyl-1,4-dihydropyridine-3,5-dicarboxylate]	1.4	60	> 90	13
COC(=O)C1=C(C)NC(C)=C(C(=O)OCC=CC=Cc2cccc3ccccc23)C1c1cccc([N+](=O)[O-])c1 (stereo not drawn) [Example 54, Methyl 5-(1-naphthyl)-2,4-pentadienyl 4-(3-nitrophenyl)-2,6-dimethyl-1,4-dihydropyridine-3,5-dicarboxylate]	6.0	30	> 90	–
Benzyl 2,4-hexadienyl 4-(2-furyl)-2,6-dimethyl-1,4-dihydropyridine-3,5-dicarboxylate [Example 81]	2.0	25	–	–
CC=CC=CCOC(=O)C1=C(C)NC(C)=C(C(=O)OC)C1c1cccc(C(F)(F)F)c1 (stereo not drawn) [Example 72, methyl 2,4-hexadienyl 4-(3-trifluoromethylphenyl)-2,6-dimethyl-1,4-dihydropyridine-3,5-dicarboxylate]	1.5	63	> 120	–
CCCC(C=Cc1ccccc1)OC(=O)C1=C(C)NC(C)=C(C(=O)OC)C1c1cccc([N+](=O)[O-])c1 (stereo not drawn) [Example 10, 1-propyl-3-phenyl-2-propenyl methyl 4-(3-nitrophenyl)-2,6-dimethyl-1,4-dihydropyridine-3,5-dicarboxylate]	12.5	72	> 90	–
COC(=O)C1=C(C)NC(C)=C(C(=O)OC(C=Cc2ccccc2)C(C)(C)C)C1c1cccc([N+](=O)[O-])c1 (stereo not drawn) [Example 6, 1-tert-butyl-3-phenyl-2-propenyl methyl 4-(3-nitrophenyl)-2,6-dimethyl-1,4-dihydropyridine-3,5-dicarboxylate]	70	55	> 90	–
CC=CC=CCOC(=O)C1=C(C)NC(C)=C(C(=O)OCCC)C1c1cccc([N+](=O)[O-])c1 (stereo not drawn) [Example 84, n-propyl 2,4-hexadienyl 4-(3-nitrophenyl)-2,6-dimethyl-1,4-dihydropyridine-3,5-dicarboxylate]	2	35	–	–
CC1=C(C(=O)OCC=Cc2ccccc2)C(c2cccc([N+](=O)[O-])c2)C(C(=O)OCC=Cc2ccccc2)=C(C)N1 (stereo not drawn) [Example 45, Dicinnamyl 4-(3-nitrophenyl)-2,6-dimethyl-1,4-dihydropyridine-3,5-dicarboxylate]	27	32	> 90	–
CC=CC=CCOC(=O)C1=C(C)NC(C)=C(C(=O)OCC)C1c1cccc([N+](=O)[O-])c1 (stereo not drawn) [Example 67, Ethyl 2,4-hexadienyl 4-(3-nitrophenyl)-2,6-dimethyl-1,4-dihydropyridine-3,5-dicarboxylate]	1.0	72	> 90	37
COC(=O)C1=C(C)NC(C)=C(C(=O)OCC=Cc2ccccc2)C1c1ccccc1F (stereo not drawn) [Example 40, Cinnamyl methyl 4-(2-fluorophenyl)-2,6-dimethyl-1,4-dihydropyridine-3,5-dicarboxylate]	1.4	60	> 90	–
CC1=C(C(=O)OCC#Cc2ccccc2)C(c2cccc([N+](=O)[O-])c2)C(C(=O)OCC=Cc2ccccc2)=C(C)N1 (stereo not drawn) [Example 46, Cinnamyl phenylpropargyl 4-(3-nitrophenyl)-2,6-dimethyl-1,4-dihydropyridine-3,5-dicarboxylate]	20	20	–	–
CC=CC=CCOC(=O)C1=C(C)NC(C)=C(C(=O)OCC=CC)C1c1cccc([N+](=O)[O-])c1 (stereo not drawn) [Example 78, 2-butenyl 2,4-hexadienyl 4-(3-nitrophenyl)-2,6-dimethyl-1,4-dihydropyridine-3,5-dicarboxylate]	2.4	23	–	–
COCCOC(=O)C1=C(C)NC(C)=C(C(=O)OCC=Cc2ccccc2)C1c1cccc([N+](=O)[O-])c1 (stereo not drawn) [Example 13, Cinnamyl 2-methoxyethyl 4-(3-nitrophenyl)-2,6-dimethyl-1,4-dihydropyridine-3,5-dicarboxylate]	2.0	35	> 270	–
COC(=O)C1=C(C)NC(C)=C(C(=O)OC(C)(C)C=Cc2ccccc2)C1c1cccc([N+](=O)[O-])c1 (stereo not drawn) [Example 23, 1,1-dimethyl-3-phenyl-2-propenyl methyl 4-(3-nitrophenyl)-2,6-dimethyl-1,4-dihydropyridine-3,5-dicarboxylate]	2.2	48	–	–
CCOC(=O)C1=C(C)NC(C)=C(C(=O)OC(C)C=Cc2ccccc2)C1c1cccc([N+](=O)[O-])c1 (stereo not drawn) [Example 31, 1-methyl-3-phenyl-2-propenyl ethyl 4-(3-nitrophenyl)-2,6-dimethyl-1,4-dihydropyridine-3,5-dicarboxylate]	40	73	> 170	–
COC(=O)C1=C(C)NC(C)=C(C(=O)OCC=CC=Cc2ccc3ccccc3c2)C1c1cccc([N+](=O)[O-])c1 (stereo not drawn) [Example 53, Methyl 5-(2-naphthyl)-2,4-pentadienyl 4-(3-nitrophenyl)-2,6-dimethyl-1,4-dihydropyridine-3,5-dicarboxylate]	18	25	90	–
CC1=C(C(=O)OC(C)C)C(c2cccc([N+](=O)[O-])c2)C(C(=O)OC(C)C=Cc2ccccc2)=C(C)N1 (stereo not drawn) [Example 32, 1-methyl-3-phenyl-2-propenyl isopropyl 4-(3-nitrophenyl)-2,6-dimethyl-1,4-dihydropyridine-3,5-dicarboxylate]	5	90	> 190	–
COC(=O)C1=C(C)NC(C)=C(C(=O)OCC(C)=Cc2ccccc2)C1c1cccc([N+](=O)[O-])c1 (stereo not drawn) [Example 22, 2-methyl-3-phenyl-2-propenyl methyl 4-(3-nitrophenyl)-2,6-dimethyl-1,4-dihydropyridine-3,5-dicarboxylate]	1.8	50	120	–
C=CCOC(=O)C1=C(C)NC(C)=C(C(=O)OCC=CC=CC)C1c1cccc([N+](=O)[O-])c1 (stereo not drawn) [Example 80, Allyl 2,4-hexadienyl 4-(3-nitrophenyl)-2,6-dimethyl-1,4-dihydropyridine-3,5-dicarboxylate]	1.4	40	–	–
COC(=O)C1=C(C)NC(C)=C(C(=O)OCCC=Cc2ccsc2)C1c1cccc([N+](=O)[O-])c1 (stereo not drawn) [Example 26, 4-(3-thienyl)-3-butenyl methyl 4-(3-nitrophenyl)-2,6-dimethyl-1,4-dihydropyridine-3,5-dicarboxylate]	1.5	47	–	–
COC(=O)C1=C(C)NC(C)=C(C(=O)OCC=C(C)c2ccccc2)C1c1cccc([N+](=O)[O-])c1 (stereo not drawn) [Example 5, 3-phenyl-2-butenyl methyl 4-(3-nitrophenyl)-2,6-dimethyl-1,4-dihydropyridine-3,5-dicarboxylate]	1.0	44	65	–
COC(=O)C1=C(C)NC(C)=C(C(=O)OC(C)C=CC2=C(C)CCCC2(C)C)C1c1cccc([N+](=O)[O-])c1 (stereo not drawn) [Example 74]	20	75	> 120	–
CC=CC=CCOC(=O)C1=C(C)NC(C)=C(C(=O)OC(C)(C)C)C1c1cccc([N+](=O)[O-])c1 (stereo not drawn) [Example 75, tert-butyl 2,4-hexadienyl 4-(3-nitrophenyl)-2,6-dimethyl-1,4-dihydropyridine-3,5-dicarboxylate]	1	28	–	–
